Measurements as given in patent EP0071175A2, “Phenylalkyloxirane-carboxylic acids, process for their preparation, their use and medicines containing them” (Byk Gulden Lomberg Chemische Fabrik GmbH, priority 1981, dated 1983).

Key:
[1] = system: nüchterner, stoffwechselgesunder Ratten; test: Blood glucose determination after single oral application; format: in vivo, Sprague-Dawley-Ratten; settings: maximal lowering vs. control group within 6 hours after single oral application of 0,6 mmol substance/kg body weight; fasted male rats
From the text: (§1) In Tabelle I werden Untersuchungen des Einflusses von Vertretern der erfindungsgemäßen Verbindungen auf die Blutglucosekonzentration nüchterner, stoffwechselgesunder Ratten wiedergegeben. Spalte A gibt jeweils die maximale Senkung der Blutglucosekonzentration nüchterner Ratten (in % bezogen auf die Kontrollgruppe) an, die im Laufe von 6 Stunden nach einmaliger oraler Applikation von 0,6 mmöl Substanz/kg Körpergewicht be-, obachtet wird. In der Spalte B werden Daten zur akuten Toxizität (LD50; Maus p.o.) wiedergegeben.
1. Blutglucosebestimmung nach einmaliger oraler Applikation
Zur Verwendung kommen junge männliche Sprague-Dawley-Ratten (Körpergewicht 150-200 g). Die Haltung der Tiere (6 Tiere pro Dosis) erfolgt in Makrolon-Käfigen mit bis zu 4 Tieren pro Käfig (Raumtemperatur 23 °C, rel. Luftfeuchtigkeit 55 %, fester Tag/Nacht-Rythmus (12/12=h) Standarddiät Altromin®). Den Ratten wird 18 Stunden vor der 1. Blutentnahme das Futter entzogen. Wasseraufnahme erfolgt ad libitum. Blutentnahmen erfolgen unmittelbar vor und 2, 4 und 6 Stunden nach Substanzgabe durch Punktion aus dem retroorbitalen Plexus. Nach Enteiweißung mit Perchlorsäure wird die Blutglucosebestimmung mittels der bei Banauch et.al. [J.Clin.Chem.Clin.Biochem. 13, 101(1975)] beschriebener Glucose-Dehydrogenase-Methode mit Hilfe von kommerziellen Reagentien durchgeführt. Zum Vergleich wird jeweils eine mit reinem Lösungsmittel behandelte Kontrollgruppe mituntersucht (10 Tiere pro Kontrollgruppe).

in vivo = settings: mouse, po, read-out: Akute Toxizität Maus p.o. LD50
From the text: as §1
2. Bestimmung der Toxizität .
Die Toxizitätsuntersuchungen werden an weiblichen NMRI-Mäusen (Körpergewicht 22-26 g) durchgeführt. Die Tiere (5 Tiere pro Dosis) erhalten 18 Stunden vor der Behandlung das Futter (Altromin®) auf 50 g/50 Tiere reduziert und Wasser ad libitum. Verschiedene Dosen der Substanzen werden oral mittels Schlundsonde verabreicht (Volumen 10 ml/kg). Die Beobachtungsdauer beträgt 7 Tage.

SMILES	Senkung der Blut-glucosekonzentration (in %) in vivo [1] [%]	LD50 (in vivo) [mg/kg]
CCCCNC(=N)NC(=N)N [compound 1, Buformin, reference compound]	8	
CCOC(=O)C1(CCCC(C)Cc2ccccc2)CO1 (stereo not shown) [compound 3, 2-(4-Methyl-5-phenylpentyl)-oxiran-2-carbonsäureethylester]	45	> 1000
CCOC(=O)C1(CCCC(C)Cc2ccc(Cl)cc2)CO1 (stereo not shown) [compound 5, 2-[5-(4-Chlorphenyl)-4-methylpentyl]-oxiran-2-carbonsäure-ethylester]	70	~500
[H]/N=C(/N)N/C(=N/[H])NCCc1ccccc1 [compound 2, Phenformin, reference compound]	6	
CCOC(=O)C1(CCCCC(C)c2ccccc2)CO1 (stereo not shown) [compound 7, 2-(5-Methyl-5-phenylpentyl)-oxiran-2-carbonsäureethylester]	22	
CCOC(=O)C1(CC(CC)CCCc2ccccc2)CO1 (stereo not shown) [compound 4, 2-(2-Ethyl-5-phenylpentyl)-oxiran-2-carbonsäureethylester]	25	
CCOC(=O)C1(CCCC(C)CCCc2ccccc2)CO1 (stereo not shown) [compound 6, 2-(4-Methyl-7-phenylheptyl)-oxiran-2-carbonsäureethylester]	35	> 500
